Values of other authors in US8178322B2, “Method for producing an L-amino acid or a nucleic acid” (Ajinomoto Co., Inc., priority 2007, dated 2012).
Converted amounts (≈) assume the structure as drawn. Like-named read-outs stand apart in the source and are kept apart here.

What was measured:
[1] = not given; remark: listed apart in the source

Row | Solubility (20° C.) [mg/mL] | Solubility (40° C.) [mg/mL] | Solubility (20° C.) [1] [mg/mL] | Solubility (40° C.) [1] [mg/mL] | SMILES
1 | 160 (≈ 1320 mM) |  |  |  | N[C@@H](CS)C(=O)O [L-cysteine]
2 | 0.09 (≈ 0.375 mM) |  |  |  | N[C@@H](CSSC[C@H](N)C(=O)O)C(=O)O [L-cystine]
3 | 37.3 (≈ 255 mM) | 66 (≈ 452 mM) |  |  | NC(=O)CC[C@H](N)C(=O)O [L-glutamine]
4 | 38 (≈ 245 mM) | 58 (≈ 374 mM) |  |  | N[C@@H](Cc1c[nH]cn1)C(=O)O [L-histidine]
5 |  | 44 (≈ 335 mM) |  |  | CC[C@H](C)[C@H](N)C(=O)O [L-isoleucine]
6 | 23.8 (≈ 181 mM) | 26 (≈ 198 mM) |  |  | CC(C)C[C@H](N)C(=O)O [L-leucine]
7 | 27.4 (≈ 166 mM) | 38 (≈ 230 mM) |  |  | N[C@@H](Cc1ccccc1)C(=O)O [L-phenylalanine]
8 | 10.6 (≈ 51.9 mM) | 14 (≈ 68.6 mM) |  |  | N[C@@H](Cc1c[nH]c2ccccc12)C(=O)O [L-tryptophan]
9 | 57.5 (≈ 491 mM) | 65 (≈ 555 mM) |  |  | CC(C)[C@H](N)C(=O)O [L-valine]
10 |  |  | 3.0 (≈ 11.2 mM) | 8.3 (≈ 31.1 mM) | Nc1ncnc2c1ncn2[C@@H]1O[C@H](CO)[C@@H](O)[C@H]1O [adenosine]
11 |  |  | 0.42 (≈ 1.48 mM) | 1.05 (≈ 3.71 mM) | Nc1nc2c(ncn2[C@@H]2O[C@H](CO)[C@@H](O)[C@H]2O)c(=O)[nH]1 [guanosine]
12 |  |  | 206 (≈ 567 mM) | 260 (≈ 716 mM) | Nc1nc2c(ncn2[C@@H]2O[C@H](COP(=O)(O)O)[C@@H](O)[C@H]2O)c(=O)[nH]1 [guanylic acid, guanosine-5′-monophosphate]
13 |  |  | 44.4 (≈ 166 mM) | 83.4 (≈ 311 mM) | OC[C@H]1O[C@@H](n2cnc3c(O)ncnc32)[C@H](O)[C@@H]1O [inosine]
